Measurements reported in patent US6620849B2, “Potassium channel inhibitors” (ICAFEN, Inc., priority 2000, dated 2003).
Like-named read-outs stand apart in the source and are kept apart here.

Biological target: T1, Kv1.5 potassium channel (Homo sapiens, UniProt P22460)
T1 construct: expressed in transfected cells
Assay: Whole-cell patch clamp electrophysiological recording of Kv1.5 currents in CHO cells
Type: cell-based
Conditions: CHO cells stably expressing Kv1.5, whole-cell voltage clamp, holding potential −80 mV, one depolarization every 10 seconds
Method: Electrophysiological recordings of potassium currents in Chinese hamster ovary cells stably expressing the gene construct for the Kv1.5 potassium channel subunit were performed using the whole cell configuration of the patch clamp technique (Hamill et al., Pflugers Archiv 391:85, 1981). Cell lines expressing Kv1.5 were prepared using standard techniques known to those skilled in the art. Cells were plated on glass coverslips at a density of 2×10^4 cells/coverslip and used within 24-48 hours. Solutions used for electrophysiological recordings were as follows. Extracellular bathing solutions typically contain (in mM) 132 NaCl, 5.4 KCl, 1.8 CaCl2, 0.8 MgCl2, 10 HEPES, 5 glucose at pH 7.3. Electrode pipette solutions (intracellular solution) for measuring Kv1.5 typically contain (in mM) 100 KF, 40 KCl, 5 NaCl, 2 MgCl2, 5 EGTA, 10 HEPES and 5 glucose at pH 7.4, 295 mOsm and has a resistance of about 1-2 MΩ. The coverslips were placed in a small chamber (volume ˜200 μl) on the mechanical stage of an inverted microscope and perfused (approximately 2 ml/min) with extracellular recording solution. Drug was applied using a series of narrow-bore glass capillary tubes (inner diameter ˜100 μm) positioned approximately 200 μm from the cell.
As soon as the current recording was stable, a compound representative of the present invention was superfused over the cell until steady-state block was observed. Using this technique, the effects of the compound on peak and steady-state current were determined at progressively increasing compound concentrations.
The testing results of selected compounds from Table 2 using this assay and the techniques described above are reported in Table 3 as the percent inhibition of Kv1.5 potassium channel currents at a single concentration of 0.1 μM.

[1] = read-out: Peak Current Inhibition at 0.1 μM (%)
[2] = read-out: Steady-state Current Inhibition at 0.1 μM (%)

T1 sequence (P22460 whole entry): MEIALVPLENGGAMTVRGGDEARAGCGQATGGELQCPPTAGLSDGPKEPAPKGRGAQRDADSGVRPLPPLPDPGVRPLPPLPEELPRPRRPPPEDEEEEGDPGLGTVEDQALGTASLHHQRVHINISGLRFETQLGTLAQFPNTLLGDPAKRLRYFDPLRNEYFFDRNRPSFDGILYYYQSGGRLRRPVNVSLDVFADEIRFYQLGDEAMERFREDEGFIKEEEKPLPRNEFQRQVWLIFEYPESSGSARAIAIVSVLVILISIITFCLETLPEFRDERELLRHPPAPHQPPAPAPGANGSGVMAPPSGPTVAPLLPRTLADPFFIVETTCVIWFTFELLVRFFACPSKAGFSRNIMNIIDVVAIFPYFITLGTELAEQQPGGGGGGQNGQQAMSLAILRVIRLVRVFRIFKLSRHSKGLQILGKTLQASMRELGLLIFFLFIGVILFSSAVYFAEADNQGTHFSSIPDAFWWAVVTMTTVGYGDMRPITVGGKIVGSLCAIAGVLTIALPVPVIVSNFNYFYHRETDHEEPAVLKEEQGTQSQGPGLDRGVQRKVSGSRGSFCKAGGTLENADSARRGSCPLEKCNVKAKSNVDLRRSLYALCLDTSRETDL

SMILES	inhibition at 0.1 µM [1]	inhibition at 0.1 µM [2]
Cn1ccnc1CN(C(=O)[C@H]1C[C@@H]1c1ccc(Cl)cc1)c1ccc2c(c1)[C@@H](NS(=O)(=O)c1ccc(F)cc1)CCC2 [Example 25]	35%	69%
CCc1ccc(S(=O)(=O)N[C@H]2CCCc3ccc(N(Cc4nccn4C)C(=O)[C@@H]4C[C@H]4c4ccc(Cl)cc4)cc32)cc1 [Example 48]	70%	95%
Cc1cccc(CN(C(=O)C2CC2c2ccccc2)c2ccc3c(c2)C(NS(=O)(=O)c2ccc(F)cc2)CCC3)n1 (stereo not shown) [Example 10]	24%	53%
Cc1cccc(CN(C(=O)[C@@H]2C[C@H]2c2ccccc2)c2ccc3c(c2)[C@@H](NS(=O)(=O)c2cccc(Cl)c2)CCC3)n1 [Example 14]	42%	81%
Cc1cccc(CN(C(=O)[C@@H]2C[C@H]2c2ccccc2)c2ccc3c(c2)[C@@H](NS(=O)(=O)c2ccccc2)CCC3)n1 [Example 12]	57%	96%
Cc1cccc(CN(C(=O)C2CC2c2ccccc2)c2ccc3c(c2)C(NS(=O)(=O)c2ccccc2Cl)CCC3)n1 (stereo not shown) [Example 9]	60%	82%
Cn1ccnc1CN(C(=O)[C@@H]1C[C@H]1c1ccc(F)cc1)c1ccc2c(c1)[C@@H](NS(=O)(=O)c1cccc(F)c1)CCC2 [Example 30]	80%	93%
Cc1cccc(CN(C(=O)[C@@H]2C[C@H]2c2ccc(C(F)(F)F)cc2)c2ccc3c(c2)[C@@H](NS(=O)(=O)c2ccccc2F)CCC3)n1 [Example 39]	50%	69%
Cc1cccc(CN(C(=O)[C@@H]2C[C@H]2c2ccccc2)c2ccc3c(c2)[C@@H](NS(=O)(=O)c2ccc(F)cc2)CCC3)n1 [Example 13]	45%	82%
Cc1cccc(CN(C(=O)C2CC2c2ccccc2)c2ccc3c(c2)C(NS(=O)(=O)c2ccccc2)CCC3)n1 (stereo not shown) [Example 7]	43%	68%
Cn1ccnc1CN(C(=O)[C@@H]1C[C@H]1c1ccccc1)c1ccc2c(c1)[C@@H](NS(=O)(=O)c1ccccc1)CCC2 [Example 6]	72%	78%
Cn1ccnc1CN(C(=O)[C@@H]1C[C@H]1c1ccc(F)cc1)c1ccc2c(c1)[C@@H](NS(=O)(=O)c1ccccc1F)CCC2 [Example 29]	68%	78%
Cn1ccnc1CN(C(=O)[C@@H]1C[C@H]1c1ccc(Cl)cc1)c1ccc2c(c1)[C@@H](NS(=O)(=O)c1ccccc1)CCC2 [Example 44]	71%	92%
Cn1ccnc1CN(C(=O)[C@@H]1C[C@H]1c1ccc(F)cc1)c1ccc2c(c1)[C@@H](NS(=O)(=O)c1ccc(F)cc1)CCC2 [Example 31]	70%	84%
Cn1ccnc1CN(C(=O)[C@@H]1C[C@H]1c1ccc(C(F)(F)F)cc1)c1ccc2c(c1)[C@@H](NS(=O)(=O)c1ccccc1F)CCC2 [Example 43]	47%	72%
Cn1ccnc1CN(C(=O)[C@@H]1C[C@H]1c1ccccc1)c1ccc2c(c1)[C@@H](NS(=O)(=O)c1ccc(Cl)cc1)CCC2 [Example 4]	64%	76%
Cn1ccnc1CN(C(=O)[C@@H]1C[C@H]1c1ccc(F)cc1)c1ccc2c(c1)[C@@H](NS(=O)(=O)c1ccc(F)c(Cl)c1)CCC2 [Example 32]	70%	91%
Cc1ncc(CN(C(=O)C2CC2c2ccccc2)c2ccc3c(c2)C(NS(=O)(=O)c2ccc(F)cc2)CCC3)n1CC(C)C (stereo not shown) [Example 5]	39%	50%
Cc1cccc(CN(C(=O)[C@@H]2C[C@H]2c2ccccc2)c2ccc3c(c2)[C@@H](NS(=O)(=O)c2ccc(Cl)cc2)CCC3)n1 [Example 16]	42%	80%
Cn1ccnc1CN(C(=O)[C@H]1C[C@@H]1c1ccc(Cl)cc1)c1ccc2c(c1)[C@H](NS(=O)(=O)c1ccccc1)CCC2 [Example 54]	57%	82%
